Target: ROCK2 (human) (UniProt O75116)
Experiment: Inhibition of ROCK2 Kinase Activity

Chain of ROCK2 (human) (O75116 whole entry, looked up): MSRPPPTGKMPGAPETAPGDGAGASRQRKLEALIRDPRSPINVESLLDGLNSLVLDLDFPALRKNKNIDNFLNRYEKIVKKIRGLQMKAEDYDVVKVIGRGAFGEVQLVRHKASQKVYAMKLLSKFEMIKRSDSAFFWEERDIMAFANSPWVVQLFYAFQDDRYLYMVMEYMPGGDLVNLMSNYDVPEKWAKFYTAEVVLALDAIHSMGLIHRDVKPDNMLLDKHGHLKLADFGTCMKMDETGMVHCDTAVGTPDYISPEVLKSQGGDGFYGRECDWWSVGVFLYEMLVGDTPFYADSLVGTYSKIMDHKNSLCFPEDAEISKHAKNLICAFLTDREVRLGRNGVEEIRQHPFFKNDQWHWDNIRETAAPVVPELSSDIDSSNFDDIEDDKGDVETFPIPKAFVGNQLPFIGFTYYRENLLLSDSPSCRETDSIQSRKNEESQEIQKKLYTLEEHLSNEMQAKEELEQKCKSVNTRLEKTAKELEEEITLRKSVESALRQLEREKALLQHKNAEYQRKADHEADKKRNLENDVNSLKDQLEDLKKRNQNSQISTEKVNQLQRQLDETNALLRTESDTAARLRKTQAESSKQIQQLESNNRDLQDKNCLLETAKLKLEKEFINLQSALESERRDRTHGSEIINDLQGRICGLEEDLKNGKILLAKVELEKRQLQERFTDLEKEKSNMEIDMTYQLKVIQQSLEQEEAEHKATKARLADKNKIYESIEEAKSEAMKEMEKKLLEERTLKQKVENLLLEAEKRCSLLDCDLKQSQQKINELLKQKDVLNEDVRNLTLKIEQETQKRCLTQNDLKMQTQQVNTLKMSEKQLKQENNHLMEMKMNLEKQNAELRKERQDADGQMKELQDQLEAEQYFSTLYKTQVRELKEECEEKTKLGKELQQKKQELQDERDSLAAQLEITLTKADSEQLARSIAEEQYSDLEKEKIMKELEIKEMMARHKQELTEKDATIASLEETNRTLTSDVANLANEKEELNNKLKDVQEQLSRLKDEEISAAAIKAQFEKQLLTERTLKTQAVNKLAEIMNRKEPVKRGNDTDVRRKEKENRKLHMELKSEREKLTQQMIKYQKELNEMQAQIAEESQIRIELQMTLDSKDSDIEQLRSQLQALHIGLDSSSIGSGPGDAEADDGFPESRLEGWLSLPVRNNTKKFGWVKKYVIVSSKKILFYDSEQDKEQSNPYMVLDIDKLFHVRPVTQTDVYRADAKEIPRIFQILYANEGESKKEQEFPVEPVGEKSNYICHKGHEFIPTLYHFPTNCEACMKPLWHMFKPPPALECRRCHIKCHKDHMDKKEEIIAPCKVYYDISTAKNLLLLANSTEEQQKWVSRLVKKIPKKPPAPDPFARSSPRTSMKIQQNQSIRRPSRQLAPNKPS

Structure (SMILES)	IC50 [nM]
COc1cc2c(=O)[nH]ccc2cc1NC(=O)[C@@H](N)C1CCCCC1	< 1000
NCCCS(=O)(=O)c1ccc(C(=O)Nc2cc3cc[nH]c(=O)c3cc2Cl)c(Cl)c1	< 1000
O=C(Nc1ccc2c(=O)[nH]cnc2c1)C1(c2ccc(Cl)cc2)CCCC1	< 1000
O=C(Nc1cc2cc[nH]c(=O)c2cc1Cl)C1CCN(C2CCCCC2)CC1	< 1000
O=C(Nc1cc2cc[nH]c(=O)c2cc1Br)[C@H]1CNC[C@@H]1c1ccc(Cl)cc1	< 1000
O=C(Nc1ccc2c(=O)[nH]cnc2c1)C1CCCN1 (stereo unspecified)	< 1000
CCN(C)C(C(=O)Nc1cc2cc[nH]c(=O)c2cc1Cl)c1ccccc1 (stereo unspecified)	< 1000
O=C(Nc1cc2cc[nH]c(=O)c2cc1Cl)C(=O)c1ccccc1	< 1000
O=c1[nH]ccc2cc(NC(=O)[C@H]3CC[C@H](C(=O)O)CC3)c(Cl)cc12	< 1000
CN1CCC(C(=O)Nc2ccc3c(=O)[nH]ccc3c2)CC1	< 1000
CC[C@@H](C)[C@H](N)C(=O)Nc1cc2cc[nH]c(=O)c2cc1Cl	< 1000
CS(=O)(=O)c1ccc(C(=O)Nc2cc3cc[nH]c(=O)c3cc2Cl)cc1	< 1000
COc1cc2c(=O)[nH]ccc2cc1NC(=O)[C@H](N)C1CCCCC1	< 1000
Cc1ccc(F)cc1C(=O)Nc1cc2cc[nH]c(=O)c2cc1Cl	< 1000
C[C@H](Oc1ccccc1)C(=O)Nc1cc2cc[nH]c(=O)c2cc1Cl	< 1000
N[C@H](Cc1ccncc1)C(=O)Nc1cc2cc[nH]c(=O)c2cc1Cl	< 1000
O=C(Nc1cc2cc[nH]c(=O)c2cc1Cl)[C@H]1CNC[C@@H]1c1ccccc1	< 1000
CC(C)CC(N)C(=O)Nc1ccc2c(=O)[nH]cnc2c1 (stereo unspecified)	< 1000
O=C(Nc1cc2cc[nH]c(=O)c2cc1Cl)C1CCN(Cc2ccccc2)CC1	< 1000
O=C(Nc1ccc2c(=O)[nH]ccc2c1)C1CNCC1c1ccc(F)cc1 (stereo unspecified)	< 1000
O=C(Nc1cc2cc[nH]c(=O)c2cc1Cl)C(NC1CCC1)c1ccccc1 (stereo unspecified)	< 1000
O=C(Nc1cc2cc[nH]c(=O)c2cc1Cl)[C@H]1CCCNC1	< 1000
N#Cc1ccccc1C(=O)Nc1cc2cc[nH]c(=O)c2cc1Cl	< 1000

Structure (SMILES)	IC50 [nM]
O=C(CNCCc1cccs1)Nc1ccc2c(=O)[nH]cnc2c1	< 1000
O=C(CNCc1cccnc1)Nc1cc2cc[nH]c(=O)c2cc1Cl	< 1000
O=C(Nc1ccc2c(=O)[nH]cnc2c1)C(NC1CC1)c1ccccc1 (stereo unspecified)	< 1000
O=C(Nc1cc2cc[nH]c(=O)c2cc1Cl)C(NCC1CC1)c1ccccc1 (stereo unspecified)	< 1000
O=C(Nc1cc2cc[nH]c(=O)c2cc1Cl)[C@@H]1CCCCN1	< 1000
O=C(CNCc1ccccc1)Nc1ccc2c(=O)[nH]cnc2c1	< 1000
CS(=O)(=O)c1ccc(C(=O)Nc2cc3cc[nH]c(=O)c3cc2Cl)c(Cl)c1	< 1000
O=C(Nc1cc2cc[nH]c(=O)c2cc1Cl)C1(Cc2ccccc2)CCNCC1	< 1000
Cc1cc(S(C)(=O)=O)ccc1C(=O)Nc1cc2cc[nH]c(=O)c2cc1Cl	< 1000
CC(C)[C@@H](O)C(=O)Nc1cc2cc[nH]c(=O)c2cc1Cl	< 1000
N[C@H](CC1CCCCC1)C(=O)Nc1cc2cc[nH]c(=O)c2cc1Cl	< 1000
Cc1ccc(C(=O)Nc2cc3cc[nH]c(=O)c3cc2Cl)c(Br)c1	< 1000
O=C(Nc1cc2cc[nH]c(=O)c2cc1Cl)c1ccc([N+](=O)[O-])cc1Cl	< 1000
COc1cccc(CC(=O)Nc2ccc3c(=O)[nH]ccc3c2)c1	< 1000
O=C(Nc1ccc2c(=O)[nH]ccc2c1Cl)[C@H]1CNC[C@@H]1c1ccccc1	< 1000
O=C(Nc1cc2nc[nH]c(=O)c2cc1Cl)[C@H]1CNC[C@@H]1c1cccc(Br)c1	< 1000
O=C(Nc1cc2cc[nH]c(=O)c2cc1Cl)C1(c2ccccc2)CCNCC1	< 1000
CC(=O)OC(C(=O)Nc1cc2cc[nH]c(=O)c2cc1Cl)c1ccccc1 (stereo unspecified)	< 1000
CO[C@H](C(=O)Nc1cc2cc[nH]c(=O)c2cc1Cl)c1ccccc1	< 1000
NC(C(=O)Nc1cc2cc[nH]c(=O)c2cc1Cl)c1cccc(Cl)c1 (stereo unspecified)	< 1000
CC1(C(=O)Nc2cc3cc[nH]c(=O)c3cc2Cl)CCN(S(C)(=O)=O)CC1	< 1000
Cc1cc(C(=O)Nc2ccc3c(=O)[nH]cnc3c2)n(C)n1	< 1000
O=C(Nc1cc2cc[nH]c(=O)c2cc1Cl)[C@H]1CNC[C@@H]1c1ccc(F)cc1	< 1000

Structure (SMILES)	IC50 [nM]
CC(C)(C)C(=O)Nc1cc2cc[nH]c(=O)c2cc1Cl	< 1000
N[C@H](Cc1ccc2ccccc2c1)C(=O)Nc1cc2cc[nH]c(=O)c2cc1Cl	< 1000
C[C@](O)(C(=O)Nc1cc2cc[nH]c(=O)c2cc1Cl)c1ccccc1	< 1000
CCOCCCNC(C(=O)Nc1cc2cc[nH]c(=O)c2cc1Cl)c1ccccc1 (stereo unspecified)	< 1000
O=C(Nc1ccc2c(=O)[nH]ccc2c1)C1(c2ccc(Cl)cc2)CCCC1	< 1000
CN(C)CC(=O)Nc1ccc2c(=O)[nH]ccc2c1	< 1000
O=C(O)C(C(=O)Nc1cc2cc[nH]c(=O)c2cc1Cl)c1ccccc1 (stereo unspecified)	< 1000
C[C@@H]1CNCC[C@@H]1C(=O)Nc1cc2cc[nH]c(=O)c2cc1Cl	< 1000
O=C(Nc1ccc2c(=O)[nH]cnc2c1)C1CCNCC1	< 1000
O=C(Nc1cc2cc[nH]c(=O)c2cc1Cl)C1(c2ccc(Cl)cc2)CCNCC1	< 1000
N[C@@H](C(=O)Nc1ccc2c(=O)[nH]cnc2c1)c1ccccc1	< 1000
O=C(Nc1cc2cc[nH]c(=O)c2cc1Cl)c1cccc2c1CCNC2	< 1000
CC(C)(C)NCC(=O)Nc1cc2cc[nH]c(=O)c2cc1Cl	< 1000
O=C(CNC1CCCc2ccccc21)Nc1cc2cc[nH]c(=O)c2cc1Cl (stereo unspecified)	< 1000
O=C(CNCC1CCCCC1)Nc1ccc2c(=O)[nH]ccc2c1	< 1000
O=C(Nc1cc2cc[nH]c(=O)c2cc1Cl)[C@@H](O)c1ccccc1	< 1000
CNC(C(=O)Nc1ccc2c(=O)[nH]cnc2c1)c1ccccc1 (stereo unspecified)	< 1000
O=C(Nc1cc2cc[nH]c(=O)c2cc1Cl)C1CNCC(c2ccccc2)C1 (stereo unspecified)	< 1000
C[C@](O)(C(=O)Nc1cc2cc[nH]c(=O)c2cc1Cl)c1ccc(Cl)cc1	< 1000
N[C@H](Cc1ccccc1)C(=O)Nc1ccc2c(=O)[nH]cnc2c1	< 1000
Cc1cc([N+](=O)[O-])ccc1C(=O)Nc1cc2cc[nH]c(=O)c2cc1Cl	< 1000
CC(C)OC(=O)Nc1cc2cc[nH]c(=O)c2cc1Cl	< 1000
O=C(Nc1cc2cc[nH]c(=O)c2cc1Cl)[C@@H]1[C@@H]2CNC[C@@H]21	< 1000

Structure (SMILES)	IC50 [nM]
O=C(COc1ccc(Cl)cc1)Nc1ccc2c(=O)[nH]ccc2c1	< 1000
O=C(Cc1ccc(F)cc1)Nc1cc2cc[nH]c(=O)c2cc1Cl	< 1000
O=C(CNCc1ccncc1)Nc1cc2cc[nH]c(=O)c2cc1Cl	< 1000
CS(=O)(=O)c1ccc(Cl)c(C(=O)Nc2cc3cc[nH]c(=O)c3cc2Cl)c1	< 1000
C[C@@H](Oc1ccccc1)C(=O)Nc1cc2cc[nH]c(=O)c2cc1Cl	< 1000
O=C(Nc1cc2cc[nH]c(=O)c2cc1Br)[C@H]1CNC[C@@H]1c1ccccc1	< 1000
N#CCC(=O)Nc1cc2cc[nH]c(=O)c2cc1Cl	< 1000
O=C(Nc1cc2cc[nH]c(=O)c2cc1Cl)[C@@H](O)C1CCCCC1	< 1000
Cc1ccccc1C(=O)Nc1cc2cc[nH]c(=O)c2cc1Cl	< 1000
Cc1cc(S(=O)(=O)N2CCNCC2)ccc1C(=O)Nc1cc2cc[nH]c(=O)c2cc1Cl	< 1000
CC(NCC1CCCCC1)C(=O)Nc1cc2cc[nH]c(=O)c2cc1Cl (stereo unspecified)	< 1000
N[C@H]1C[C@H](C(=O)Nc2cc3cc[nH]c(=O)c3cc2Cl)C1	< 1000
O=C(Nc1ccc2c(=O)[nH]cnc2c1)C1CCCNC1 (stereo unspecified)	< 1000
O=C(CN[C@]12C[C@H]3C[C@H](C[C@H](C3)C1)C2)Nc1cc2cc[nH]c(=O)c2cc1Cl	< 1000
CN1CCC(C(=O)Nc2cc3cc[nH]c(=O)c3cc2Br)CC1	< 1000
N[C@H]1CCC[C@H](C(=O)Nc2cc3cc[nH]c(=O)c3cc2Cl)C1	< 1000
CC(C)C(C(=O)Nc1cc2cc[nH]c(=O)c2cc1Cl)c1ccc(Cl)cc1 (stereo unspecified)	< 1000
O=C(Nc1cc2cc[nH]c(=O)c2cc1Cl)C1CCN(Cc2ccncc2)CC1	< 1000
O=C(Nc1cc2cc[nH]c(=O)c2cc1Cl)c1ccccc1CN1CCOCC1	< 1000
O=C(Nc1cc2cc[nH]c(=O)c2cc1Cl)[C@H]1CNC[C@@H]1c1ccc(Cl)cc1	< 1000
CN1CCC(C(=O)Nc2cc3cc[nH]c(=O)c3cc2C#N)CC1	< 1000
O=C(Nc1cc2cc[nH]c(=O)c2cc1Cl)c1ccc([N+](=O)[O-])cc1C(F)(F)F	< 1000
O=C(Nc1ccc2c(=O)[nH]cnc2c1)[C@H]1CCCN1	< 1000

Structure (SMILES)	IC50 [nM]
O=C(Nc1cc2cc[nH]c(=O)c2cc1Cl)c1ccc(Br)cc1Cl	< 1000
O=C(Nc1ccc2c(=O)[nH]ccc2c1)C1CNCC1c1ccccc1 (stereo unspecified)	< 1000
O=C(Nc1cc2cc[nH]c(=O)c2cc1Cl)C(O)c1ccccc1 (stereo unspecified)	< 1000
N[C@H]1C[C@@H](C(=O)Nc2cc3cc[nH]c(=O)c3cc2Cl)C1	< 1000
COc1cc2c(=O)[nH]ccc2cc1NC(=O)[C@H](OC)c1ccccc1	< 1000
O=C(CNCC1CCCCC1)Nc1ccc2c(=O)[nH]cnc2c1	< 1000
O=C(Nc1ccc2c(=O)[nH]ccc2c1)c1cccs1	< 1000
CN1CCN(Cc2ccccc2C(=O)Nc2cc3cc[nH]c(=O)c3cc2Cl)CC1	< 1000
O=C(Nc1cc2cc[nH]c(=O)c2cc1Cl)[C@@H]1CCCNC1	< 1000
O=C(Nc1cc2cc[nH]c(=O)c2cc1Cl)c1cccnc1Sc1ccccc1	< 1000
COC(=O)C[C@@H](C)C(=O)Nc1cc2cc[nH]c(=O)c2cc1Cl	< 1000
O=C(Nc1cc2cc[nH]c(=O)c2cc1Cl)C1CNCCN1 (stereo unspecified)	< 1000
CC(=O)O[C@H]1CC[C@@H](C(=O)Nc2cc3cc[nH]c(=O)c3cc2Cl)CC1	< 1000
O=C(Nc1cc2cc[nH]c(=O)c2cc1Cl)c1ccc(Cl)cc1Cl	< 1000
CC(C)N1CCC(C(=O)Nc2cc3cc[nH]c(=O)c3cc2Cl)CC1	< 1000
O=C(Nc1cc2cc[nH]c(=O)c2cc1Cl)c1ccc2c(c1)CCNC2	< 1000
O=C(Nc1ccc2c(=O)[nH]ccc2c1)c1cccnc1Oc1ccc(Cl)cc1	< 1000
CN1CCN(CC(=O)Nc2cc3cc[nH]c(=O)c3cc2Cl)CC1	< 1000
NCCC(=O)Nc1cc2cc[nH]c(=O)c2cc1Cl	< 1000

Source: the Kinase Knowledgebase extract (Sharma et al. 2016)
